From patent publication US12083091B2, “Inhibitors of glucosylceramide degradation in the treatment of diseases of the motor units” (priority 2016, dated 2024)

Columns and labels:
GCase = test: Total GCase activity in the spinal cord after CBE treatment; assay type: in vivo, mice; conditions: CBE 10 mg/kg/day, intraperitoneal
non-transgenic mice [1] = test: Sciatic nerve injury (crush) in non-transgenic mice: functional recovery and re-innervation; assay type: in vivo
Method: Sciatic Nerve Injury: Peripheral nerve injury was performed in order to induce muscle denervation and axonal regeneration. Non-transgenic mice were anesthetized with ketamine chlorohydrate (100 mg/kg) and xylazine (5 mg/kg). The sciatic nerve was exposed at mid-thigh level and crushed with fine forceps for 30 s. The skin incision was sutured, and mice were allowed to recover. The hind limb, contralateral to the lesion, served as control. Mice were treated with CBE (10 mg/kg/d) for 12 days, or with ambroxol (120-150 mg/kg/day) for 10 days, starting the day before surgery. Mice were followed on a daily basis. Body mass, muscle strength of individual hind limbs (mean of three tests was recorded), and locomotor profile (catwalk, Noldus) were analyzed.
Here, we sought to determine the effect of CBE on the motor recovery after nerve injury in non-transgenic mice. CBE was administrated on a daily basis (10 mg/kg/day), from […] until the end of the study, 12 days after injury.

SOD1 mice = test: SOD1(G86R) mice, animal model of ALS: disease onset, motor function, motor unit histology, survival; assay type: in vivo
Method: Ambroxol was given orally in the drinking water. […] Non-transgenic littermates served as controls. […] Average speed, paw swing and stride length were measured. […] Non-transgenic littermates served as controls.
Spinal cord: Lumbar spinal cord fixed in paraformaldehyde 4% were used for studying the distribution of GM1a around motor neurons. Coronal section 40 μm thick were realized with a vibratome and were stained with an anti-[…] (1/100, Millipore, France) and an alexa594 conjugated goat (1/200, Jackson) antibodies. GM1a was detected with the cholera toxin sub-unit beta coupled with an Allexa488 dye (1/200, ThermoFisher). Fluorescence intensity of GM1a was calculated with an image processing program (ImageJ). For motor neuron couting, all neurons located in the ventral horn, that were >400 μm^2 in size and ChAT positive were considered as alpha motor neurons. Six sections of spinal cord that were apart over a length of 0.24 mm were counted.
Muscle bundles: Tibialis anterior muscles fixed in paraformaldehyde 4% were dissected into bundles under a binocular microscope. Bundles were collected from at least three different parts of the muscle. Acetylcholine receptors in the postsynaptic apparatus of neuromuscular junctions were labeled with rhodamine-conjugated α-bungarotoxin (Sigma-Aldrich). Immunofluorescent labeling of nerve terminals was performed with a rabbit polyclonal anti-synaptophysin antibody diluted 1/200 (Abcam, Cambridge, UK), and Alexa conjugated goat anti-rabbit diluted 1/500 (Jackson). Neuromuscular junction integrity was assessed by studying the colocalization of synaptophysin and bungarotoxin signal. […].
Coronal muscle sections: Twenty-micrometer sections were obtained by cutting isopentane fresh-frozen tibialis anterior muscles perpendicular to the muscle axis with a cryostat at −20° C. (Leica, Nanterre, France). Acetylcholine receptors in the postsynaptic apparatus of neuromuscular junctions were labeled with rhodamine-conjugated α-bungarotoxin (Sigma-Aldrich). GM1a distribution was labeled with the cholera toxin sub-unit beta coupled with an Allexa488 dye (1/200, ThermoFisher).

non-transgenic mice [2] = conditions: mouse, in vivo
[3] = test system: muscle and spinal transcriptomes of SOD1 mice; test: Muscle and spinal transcriptomes of SOD1 mice after CBE treatment (GO biological functions of restored genes); assay type: in vivo; conditions: spinal cord and muscle
[4] = test system: co-culture of spinal explants and myoblasts; test: Co-culture of spinal explants and myoblasts: neurite network / area of innervation; assay type: cell-based; conditions: ambroxol 100 μM in culture medium
Method: We next sought to determine whether another inhibitor of GlcCer degradation could support axonal plasticity and improve the phenotype of SOD1 mice. We used ambroxol, which is an inhibitor of GBA2 activity (Narita, A. et al. Ambroxol chaperone therapy for neuronopathic Gaucher disease: A pilot study. Ann. Clin. Transl. Neurol. 3, 200-215 (2016)). First, ambroxol (100 μM) was added to the culture medium of a co-culture of spinal explants and myoblasts. […] Next, ambroxol was given per os to SOD1 mice (120-150 mg/kg/day) from day 75 to day 95. […] In a second cohort of mice, the treatment was initiated at disease onset to study ambroxol's effect on late disease stage and survival. […] Next, ambroxol was given to mice subjected to sciatic nerve injury in order to determine its effects on peripheral nerve regeneration.

[5] = CBE 10 mg/kg/day, 12 days after injury
[6] = CBE 10 mg/kg/day, until 12 days after injury, vs placebo
[7] = ambroxol 120-150 mg/kg/day for 10 days
[8] = ambroxol, second cohort, treatment initiated at disease onset

## OC1C(O)C(O)C2OC2C1O (centres unmarked) [CBE, 1,2-anhydro-myo-inositol]
GCase
  GCase activity in the spinal cord: decrease
non-transgenic mice [1]; [5]
  locomotor profile of the injured paw (contact area, hindlimb step cycle): closer to the contralateral side
  muscle fibrillation at sacrifice: less muscle fibrillation
non-transgenic mice [1]; [6]
  muscle strength recovery after sciatic nerve injury: occurred faster, by several days
  time to toe spreading after sciatic nerve injury: occurred faster, by several days
SOD1 mice; CBE 10 mg/kg/day i.p., 95 days of age
  fibrillation events (electromyogram), sign of muscle denervation, vs SOD1 placebo group: less frequently detected
SOD1 mice; CBE 10 mg/kg/day i.p., 95 days of age, tibialis anterior
  number of fully innervated NMJs: comparable to wild type and significantly higher to SOD1 mice receiving the placebo
SOD1 mice; CBE 10 mg/kg/day i.p., 95 days of age, placebo SOD1 almost 60% loss
  loss of large motor neurons in lumbar spinal cord compared to wild type: 30%
SOD1 mice; CBE 10 mg/kg/day i.p., SOD1 mice
  presence of axonal GM1a at presynaptic axons of NMJs: clearly detectable
SOD1 mice; CBE 10 mg/kg/day i.p., SOD1 mice at 95 days of age
  development of locomotor impairments (average speed, stride length, paw swing; catwalk): completely prevented
SOD1 mice; CBE 10 mg/kg/day i.p., from 75 to 95 days of age
  delay of disease onset (onset of muscle strength loss) compared to the placebo group: 6 days
SOD1 mice; CBE 10 mg/kg/day i.p., spinal cord ventral horn
  astrocyte activation (GFAP staining fluorescence intensity): no influence
non-transgenic mice [2]
  loss of motor function in non-transgenic mice: without inducing loss of motor function
  side effects (body mass and muscle strength evolution upon treatment): does not induce side effects
[3]
  global transcriptomic deregulations in SOD1 mice: partially corrected

## Nc1c(Br)cc(Br)cc1CN[C@H]1CC[C@H](O)CC1 [ambroxol, trans-4-(2-Amino-3,5-dibrombenzylamino)-cyclohexanol]
non-transgenic mice [1]; [7]
  muscle strength of ipsilateral hind paws after sciatic nerve injury: significantly improved
  peripheral nerve regeneration after injury: significantly improves
non-transgenic mice [1]; ambroxol 120-150 mg/kg/day, ten days after injury
  correct muscle re-innervation: significantly improves
SOD1 mice; ambroxol 120-150 mg/kg/day per os, day 75 to 95, at 95 days of age
  innervation status (NMJ integrity): improved
SOD1 mice; ambroxol 120-150 mg/kg/day per os, day 75 to day 95
  delay of first loss of muscle strength (disease onset) compared to placebo: ~10 days
SOD1 mice; [8]
  improvement of total survival: more than 8 days
  muscle strength: significantly improved
[4]
  neurite network (total area of innervation) of co-culture: improved
